Results on one compound are retold here after patent US6495525B1, “VLA-4 inhibitor: oMePUPA-V” (Biogen, Inc., priority 1998, dated 2002).

Some results are limits rather than exact numbers.

In assay [1] the target is T1, α4β7 (Homo sapiens, UniProt P13612+P26010).
T1 construct: endogenous in cells; host or cells: JY cells
T1 sequence (P13612 34-1032): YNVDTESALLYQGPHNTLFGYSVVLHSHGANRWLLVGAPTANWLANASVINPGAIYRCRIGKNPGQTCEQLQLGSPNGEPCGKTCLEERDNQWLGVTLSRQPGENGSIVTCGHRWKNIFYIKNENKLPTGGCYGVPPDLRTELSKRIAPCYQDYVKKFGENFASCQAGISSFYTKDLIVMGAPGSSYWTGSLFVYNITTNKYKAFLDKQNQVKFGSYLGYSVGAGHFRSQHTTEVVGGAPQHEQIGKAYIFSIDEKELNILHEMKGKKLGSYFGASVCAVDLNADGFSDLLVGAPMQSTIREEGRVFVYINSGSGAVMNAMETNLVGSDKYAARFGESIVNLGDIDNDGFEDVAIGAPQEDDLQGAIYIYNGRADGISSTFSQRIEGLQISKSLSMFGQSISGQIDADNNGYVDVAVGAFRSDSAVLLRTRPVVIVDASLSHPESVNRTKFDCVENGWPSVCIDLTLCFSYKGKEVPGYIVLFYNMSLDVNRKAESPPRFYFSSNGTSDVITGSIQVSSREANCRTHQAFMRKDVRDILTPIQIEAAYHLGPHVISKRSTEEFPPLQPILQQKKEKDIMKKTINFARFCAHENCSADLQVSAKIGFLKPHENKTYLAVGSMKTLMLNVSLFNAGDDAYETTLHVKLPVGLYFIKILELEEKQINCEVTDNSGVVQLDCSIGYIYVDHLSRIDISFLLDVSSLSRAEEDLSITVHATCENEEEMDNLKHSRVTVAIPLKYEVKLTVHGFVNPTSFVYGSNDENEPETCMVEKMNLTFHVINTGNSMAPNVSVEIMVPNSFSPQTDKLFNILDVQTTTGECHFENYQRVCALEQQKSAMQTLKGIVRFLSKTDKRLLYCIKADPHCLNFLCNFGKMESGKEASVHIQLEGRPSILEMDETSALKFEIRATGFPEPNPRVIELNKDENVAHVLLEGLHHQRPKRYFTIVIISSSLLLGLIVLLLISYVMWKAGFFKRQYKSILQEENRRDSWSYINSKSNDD
T1 sequence (P26010 20-798): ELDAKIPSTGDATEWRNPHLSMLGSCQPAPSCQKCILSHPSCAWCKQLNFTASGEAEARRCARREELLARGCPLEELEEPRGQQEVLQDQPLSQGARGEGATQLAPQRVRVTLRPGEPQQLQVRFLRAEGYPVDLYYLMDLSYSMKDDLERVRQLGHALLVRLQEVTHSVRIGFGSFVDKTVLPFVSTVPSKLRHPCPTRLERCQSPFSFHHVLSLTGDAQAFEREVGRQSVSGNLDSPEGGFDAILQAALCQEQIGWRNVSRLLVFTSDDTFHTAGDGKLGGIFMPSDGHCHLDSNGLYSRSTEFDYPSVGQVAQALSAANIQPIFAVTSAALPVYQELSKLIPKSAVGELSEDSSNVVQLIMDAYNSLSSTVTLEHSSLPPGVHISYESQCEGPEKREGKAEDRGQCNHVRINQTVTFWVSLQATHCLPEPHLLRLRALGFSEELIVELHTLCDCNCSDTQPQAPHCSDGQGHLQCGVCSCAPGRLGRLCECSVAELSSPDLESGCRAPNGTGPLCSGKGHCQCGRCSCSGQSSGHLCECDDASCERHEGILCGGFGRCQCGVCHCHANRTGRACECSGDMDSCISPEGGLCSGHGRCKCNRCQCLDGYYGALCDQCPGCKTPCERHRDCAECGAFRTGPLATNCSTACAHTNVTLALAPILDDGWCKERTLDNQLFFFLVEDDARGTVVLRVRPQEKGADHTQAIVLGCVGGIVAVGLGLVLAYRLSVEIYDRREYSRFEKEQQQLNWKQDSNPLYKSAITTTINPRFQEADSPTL
The assay can be described thus: JY cell adhesion to CS1/BSA conjugate. The assay is classed as cell-based. The following applies: Mn+2. The method, then: Binding to α4β7 was assessed on JY cells in the presence of Mn^+2. In the binding assay, VCAM-Ig and oMePUPA-V compete for binding to α4β7 on JY cells (See section 4.1.1 for assay protocol). In the cell adhesion assay, oMePUPA-V was tested for its ability to block JY (α4β7) cell binding to CS1/BSA conjugate

Assay [2] deals with VLA-4 (Homo sapiens, UniProt P05556+P13612). The assay can be described thus: VCAM-Ig Direct Binding Assay (DBA) on Jurkat cells. The arrangement: endogenous in cells; host or cells: Jurkat (human T cell line). The source says: A direct binding assay may also be employed to quantitate the inhibitory activity of the compounds of this invention. In this assay, a VCAM-IgG fusion protein containing the first two immunoglobulin domains of VCAM (D1D2) attached above the hinge region of an IgG1 molecule (“VCAM 2D-IgG”), is conjugated to a marker enzyme, such as alkaline phosphatase (“AP”). The synthesis of this VCAM-IgG fusion is described in PCT publication WO 90/13300, the disclosure of which is herein incorporated by reference. The conjugation of that fusion to a marker enzyme is achieved by cross-linking methods well-known in the art.
Sequence of VLA-4 (P05556 21-798, one chain of several): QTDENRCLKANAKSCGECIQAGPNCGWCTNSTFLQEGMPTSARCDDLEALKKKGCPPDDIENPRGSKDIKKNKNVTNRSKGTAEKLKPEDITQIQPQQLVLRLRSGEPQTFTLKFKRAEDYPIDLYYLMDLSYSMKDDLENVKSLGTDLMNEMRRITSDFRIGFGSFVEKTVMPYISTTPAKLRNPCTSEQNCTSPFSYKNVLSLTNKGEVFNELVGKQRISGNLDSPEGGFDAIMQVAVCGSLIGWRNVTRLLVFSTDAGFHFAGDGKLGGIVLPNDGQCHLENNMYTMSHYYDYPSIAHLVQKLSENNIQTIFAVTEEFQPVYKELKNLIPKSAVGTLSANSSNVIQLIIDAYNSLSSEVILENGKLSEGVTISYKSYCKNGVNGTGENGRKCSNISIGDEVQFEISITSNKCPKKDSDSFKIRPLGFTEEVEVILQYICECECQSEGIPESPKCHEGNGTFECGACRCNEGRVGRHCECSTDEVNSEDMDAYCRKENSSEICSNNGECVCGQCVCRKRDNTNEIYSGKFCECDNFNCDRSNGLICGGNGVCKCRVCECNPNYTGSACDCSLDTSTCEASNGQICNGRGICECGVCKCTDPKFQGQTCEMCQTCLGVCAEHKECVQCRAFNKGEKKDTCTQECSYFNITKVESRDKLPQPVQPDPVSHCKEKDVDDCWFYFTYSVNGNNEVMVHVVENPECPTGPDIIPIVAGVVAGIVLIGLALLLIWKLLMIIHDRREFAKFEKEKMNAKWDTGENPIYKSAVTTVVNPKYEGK
The VCAM-IgG enzyme conjugate is then placed in the wells of a multi-well filtration plate, such as that contained in the Millipore Multiscreen Assay System (Millipore Corp., Bedford, Ma.). Varying concentrations of the test inhibitory compound are then added to the wells followed by addition of VLA-4-expressing cells. […]
Following incubation, the wells are vacuum drained, leaving behind the cells and any bound VCAM. Quantitation of bound VCAM is determined by adding an appropriate colorimetric substrate for the enzyme conjugated to VCAM-IgG and determining the amount of reaction product. […]
VCAM-Ig was constructed and purified as published (Jakubowski, A. et al. Cell Adhesion and Communication 3:131-142, 1995). […] Binding to VLA-4 was assessed on the human T cell line, Jurkat (α4β1). […]

As for `Cc1ccccc1NC(=O)Nc1ccc(CC(=O)N2CCC[C@H]2C(=O)N[C@H](C)CC(=O)O)cc1` [oMePUPA-V], in assay [1] (@ 100 μM), the “inhibition, JY (α4β7) CS1/BSA adhesion” value is “no inhibition @”. Moreover, the “blocking of α4β7 binding to CS1/BSA (in words)” value in assay [1] (JY cells) was “does not block”. Also, the IC50 (as a rule, the point on the concentration scale where inhibition reaches its midpoint) in assay [2] (1 mM MnCl2, read-out: IC50 ± SD, Jurkat cell VCAM-Ig Binding) amounted to 8 ± 1 nM. Further, the “specificity for VLA-4” value in assay [2] (versus α4β7, VLA-5 and gpIIbIIIa) is on record as > 10,000 fold.
